Measurements as given in US20150278436A1, “Methods For Evaluating Effects Of A Treatment On Biological Processes And Pathways” (The Procter & Gamble Company, priority 2014, published 2015).

Columns and labels:
Format in all cases: cell-based
[1] = test system: cholesterol metabolism processes/pathways; test: Percentile of treatment anti-aging effect on Gene Ontology processes/pathways (FIG. 6); settings: for effect on the cholesterol metabolism processes/pathways: processes/pathways 100a-h, associated with fibroblasts
From the text: (§1) In general, the method computes a distance between two vectors (i.e., a vector distance), and determines the statistical significance of the vector distance to assess the effect of a treatment on a particular biological pathway. The first of the two vectors is a set of expression changes representing the treatment effect of an ingredient on genes in the biological pathway, and includes one value for each of the genes in the biological pathway. The second of the vectors is a set of expression changes representing the effect of the condition on the genes of the biological pathway. By comparing the vector distance between the two vectors against an empirical distribution of vector distances, the significance of the effect of the treatment on the biological pathway can be determined. The genes corresponding to each biological pathway/process and represented in each of the vectors are specified by Gene Ontology, KEGG pathway, WikiPathway, and/or any other known source.
Specific methods and calculations will now be described using the examples above in which the target treatment is Pal-KTTKS (and others) and the target condition is aging of skin cells. Throughout, UV-mediated aging may also be referred to as “photo-aging,” and cells subject to photo-aging may be referred to as “UV-exposed skin cells” or “skin cells exposed to UV radiation.” Similarly, non-UV-mediated aging may also be referred to as “intrinsic aging,” and cells subject to intrinsic aging may be referred to as “non-UV-exposed skin cells.” The treatment effect—in this case the anti-aging effect—of a specified ingredient (e.g., Pal-KTTKS) is measured by the vector distance (e.g., cosine distance) between two vectors of expression changes (e.g., log 2 fold expression changes) of genes in a target biological process. […]
(§2) While the vector distance for a treatment and a target biological pathway is indicative of the effect of the treatment on the target biological pathway, the vector distance by itself is not indicative of the significance of the effect relative to other effects on other biological pathways. The statistical significance of a particular vector distance may be extrapolated from an empirical distribution of vector distances calculated using reference genomics data such as connectivity map (CMap) genomics data. […]
Using the distributions, a percentile may be calculated for the vector distance between the clinical and treatment vectors. Specifically, the percentile among the extreme region of the distribution for the i-th target biological process is calculated according to […]

[2] = test system: ATPase regulation processes/pathways; test: Percentile of treatment anti-aging effect on Gene Ontology processes/pathways (FIG. 7)
From the text: as §1, with “The genes corresponding to each biological pathway/process and represented in each of the vectors are specified by Gene Ontology, KEGG pathway, WikiPathway, and/or any other known source.” left out
as §2

[3] = test system: innate and adaptive immunity processes/pathways; test: Percentile of treatment anti-aging effect on Gene Ontology processes/pathways (FIG. 8)
From the text: as §1, with “The genes corresponding to each biological pathway/process and represented in each of the vectors are specified by Gene Ontology, KEGG pathway, WikiPathway, and/or any other known source.” left out
as §2

[4] = test system: cholesterol biosynthesis pathway; test: Vector (cosine) distance between treatment and clinical aging gene expression vectors, with percentile in the reference genomics distribution (FIG. 4)
From the text: as §1
In the case of a study of the effects of a particular agent, Pal-KTTKS (e.g., at 3 ppm concentrations), on aging of skin cells, for example, a particular biological process may be targeted. For each of the genes in the target biological process, the expression changes (e.g., log 2 fold changes) between old and young cells may be calculated for cells exposed to ultraviolet (UV) radiation (e.g., cells taken from the arms), for cells not exposed to UV radiation (e.g., cells taken from the buttocks), or for both. That is, the condition genomics data 34 may be compared to the control genomics data 33 to determine the expression change for each of the genes in the target biological process. The expression changes between treated and untreated cells may also be calculated for each of the genes in the target biological process, which in some implementations may include comparing the control genomics data 33 to the treatment genomics data 32. Each set of expression changes (where each set comprises an expression change for each of the genes in the target biological process) forms a corresponding vector, and the vector for the treatment effect (also referred to hereafter as the “treatment vector”) is compared to the vector for the reference effect (e.g., the vector for old/young cells), which is also referred to herein as a “clinical vector,” by taking the distance (e.g., cosine distance) between the vectors.
Specific methods and calculations will now be described using the examples above in which the target treatment is Pal-KTTKS (and others) and the target condition is aging of skin cells. Throughout, UV-mediated aging may also be referred to as “photo-aging,” and cells subject to photo-aging may be referred to as “UV-exposed skin cells” or “skin cells exposed to UV radiation.” Similarly, non-UV-mediated aging may also be referred to as “intrinsic aging,” and cells subject to intrinsic aging may be referred to as “non-UV-exposed skin cells.” The treatment effect—in this case the anti-aging effect—of a specified ingredient (e.g., Pal-KTTKS) is measured by the vector distance (e.g., cosine distance) between two vectors of expression changes (e.g., log 2 fold expression changes) of genes in a target biological process. One of the vectors compares treatment genomics data for the genes with control genomics data for the genes to represent the treatment effects on the genes (i.e., a “treatment effect vector” or “treatment vector” of the ingredient). […]

| Compound | percentile for steroid metabolic process (100b) ([1]; columns D and E, only single process below exemplary threshold) [%] | effect on the cholesterol metabolism processes/pathways ([1]; FIG. 6) | effect on the ATPase regulation processes/pathways overall [2] | effect on the set 140 of innate and adaptive immunity pathways [3] | percentile values for innate and adaptive immunity processes/pathways ([3]; many of the percentile values, example threshold) [%] | calculated percentile of vector distance in distribution from fibroblast reference genomics data, UV-mediated aging ([4]; 3 ppm on fibroblast cells, UV-exposed cells) | cosine distance with the photo aging vector ([4]; 3 ppm on fibroblast cells, UV-exposed cells clinical vector, cholesterol biosynthesis pathway) | calculated percentile of vector distance in distribution from fibroblast reference genomics data, intrinsic aging ([4]; 3 ppm on fibroblast cells, non-UV-exposed cells) | cosine distance with the intrinsic aging vector ([4]; 3 ppm on fibroblast cells, non-UV-exposed cells clinical vector, cholesterol biosynthesis pathway) | anti-aging benefit on the cholesterol synthesis pathway ([4]; both intrinsic and UV-mediated aging) | percentile values for each of the biological processes/pathways 100a-h ([1]; cholesterol metabolism set, FIG. 6) |
| --- | --- | --- | --- | --- | --- | --- | --- | --- | --- | --- | --- |
| NC(=O)c1cccnc1 [Niacinamide] | < 5 | likely does not strongly affect | almost no effect | strong effect | < 5 |  |  |  |  |  |  |
| Pal-KTTKS |  | very strong effect | almost no effect |  |  | 0.36 | −0.640 | 0.22 | −0.720 | strong anti-aging benefit | very low percentile values |
